Entries after “also recorded” stand apart in the source; their conditions may differ.
Legend:
[1] = test system: Prognostic Epigenetic Signature (PES, 25-gene signature) in HCV Jc1-infected Huh7.5.1dif cells; test: PES cell-based model: HCV-infected differentiated Huh7.5.1 cells, PES expression by RNA-Seq or nCounter; design: species or system human; conditions: JQ1 50 nM, Nizatidine 10 μM, Captopril 1 μM, Pioglitazone 1 μM
Description: Cell-based models. Huh7.5.1 and human stellate LX2 cells were cultured in Dulbecco's Modified Eagle Medium (DMEM) supplemented with 10% heat-decomplemented fetal bovine serum FBS, gentamycin (0.05 mg/mL) and non-essential amino acids (complete DMEM) at 37° C. with 5% CO2. For proliferation arrest and differentiation ([…] cells), Huh7.5.1 cells were cultured in complete DMEM supplemented 1% DMSO [5]. All cell lines were certified mycoplasma-free. To analyze the PES induction […] cells were infected with HCV Jc1 (genotype 2a/2a) for a total of 10 days. Cells were then treated with Captopril (1 μM), Nizatidine (10 μM), Pioglitazone (1 μM), JQ1 (50 nM). For the FFA model, Huh7.5.1^dif cells were cocultured with 20% LX-2 cells. Following co-culture for 3 days in DMEM supplemented with 10% heat-decomplemented FBS, gentamycin and 1% DMSO at 37° C. and 5% CO2, cells were incubated with FFA (800 μM oleic acid and 400 μM palmitic acid) for 72 h.
(§1) Analysis of gene expression of the prognostic epigenetic signature (PES) using nCounter expression or RNASeq analyses. Profiling of the PES was performed using Nanostring nCounter assay or RNASeq as described. Induction or suppression of the PES in gene expression data was determined as previously reported using the Gene Set Enrichment Analysis (GSEA), implemented in GenePattern genomic analysis toolkits. […]

[2] = test system: DEN and CDAHFD-induced hepatocarcinogenesis; test: DEN/CDAHFD NASH-fibrosis-HCC mouse model: liver disease, fibrosis and tumor burden; type: in vivo; conditions: DEN/CDAHFD mice
From the text: FIG. 8. Reversal of the PES poor prognosis status in vivo by a bromodomain-4 inhibitor translates into improvement of liver disease and cancer prevention (A) Schematic representation of in vivo the proof-of-concept study using a mouse model of DEN and choline-deficient, L-amino acid-defined, high-fat diet (CDAHFD)-induced hepatocarcinogenesis. (B) Transcriptomic changes of genes with significant H3K27ac modifications from livers from patients with NASH and chronic hepatitis C (CHC) as explained in FIG. 1D (overlapping genes) and corresponding changes in vehicle or JQ1-treated DEN/CDAHFD mice. (C) Venn diagram showing epigenetically and transcriptionally altered genes in CHC/NASH patients and in DEN/CDAHFD mice, that were corrected by JQ1 treatment. Genes that harbor epigenetic and transcriptomic changes were identified in CHC/NASH patients and in DEN/CDAHFD mice. Among the changed genes, the inventors analyzed whether JQ1 could revert back their H3K27ac levels and their transcript expression levels. (H) GSEA enrichments of 1693-gene signature and 25-gene signature (PES) gene sets in data shown for JQ1-treated DEN/CDAHFD mice. (D) Improvement of liver disease and prevention of HCC. The global status corresponds to the difference between low risk- and high risk-gene expression. GSEA enrichments of 1693-gene signature and 25-gene signature (PES) gene sets in data shown for JQ1-treatment on panel B. The global status corresponds to the difference between low risk- and high risk-gene expression. […] Results are expressed as means±SEM. (F) Representative macroscopic photographs of livers (×1.5 magnified), H&E and Sirius red staining of liver sections from vehicle and JQ1-treated mice. Tumor nodules are indicated by an arrowhead and are delimited by dashed lines. […] Fibrosis stage was evaluated through quantitative digital analysis of whole-scanned liver sections (collagen proportional area (CPA)) in JQ1-treated (n=3) compared with JQ1-untreated (n=3) mice. Results are expressed as means±SD.
Example 5: Reversal of the PES poor prognosis status in vivo translates into improvement of liver disease, inhibition of fibrosis progession and cancer prevention. To investigate (1) whether the PES is modeled in animal models for liver disease and (2) reversal of the […] poor prognosis status by a compound correlates with improvement of liver disease and cancer prevention, the inventors studied the 1693 gene signature and the 25 gene subset expression in a NASH-fibrosis-HCC mouse model, in which the mice are treated with the BRD inhibitor JQ1 following development of liver disease. In this model a Choline-deficient high-fat-diet (CDHFD) diet combined with DEN, a chemical carcinogen, induces liver fibrosis progressing to HCC. […] Mice were treated with JQ1 after 6 weeks of CDAHFD feeding when liver disease developed (FIG. 8A).

[3] = test system: 1693-gene signature and 25-gene signature (PES); test: Transcriptomic profiling (RNA-Seq, GSEA) of livers of DEN/CDAHFD mice; type: in vivo, mouse
Description: ChIPmentation based ChIP-Seq and RNA next-generation sequencing (NGS). ChIPmentation-based ChIP-Seq was performed as described. RNA-Seq was performed as described. Mouse RNA-Seq data was processed as described for patient's data but was instead mapped to the mouse genome mm10 and annotated using the Gencode vM15 gene annotation. Processing of ChIPmentation data was described, and data was partially derived from BioProject PRJNA506130. Since late stage fibrosis patients have the highest HCC risk, patient tissues from late stage fibrosis (F3 and F4) samples were included for all H3K27ac analyses as well as from the external CHC RNA-Seq dataset (GSE84346)[12]. Transcriptomic data for NASH patients was derived from external expression dataset (GSE115193)[13] and data for DAA-cured patients was published in BioProject PRJNA506130[6]. The RNA-Seq data from HCV-infected liver cells was published in (GSE126831)[14].
as §1, with “toolkits. False discovery rate (FDR)<0.05 was regarded as statistically significant.” for “toolkits.”

Row | Compound | Reversal of PES (25-gene signature) from HCC high risk, poor prognosis status to HCC low risk, good prognosis status [1] | Tumor burden in vivo [2] | Liver fibrosis measured by collagen proportionate area (CPA) ([2]; treated n=3 vs untreated n=3) | Body weight ([2]; treated n=8 vs untreated n=8) | Liver weight ([2]; treated n=8 vs untreated n=8) | Number of tumor nodules ([2]; treated n=8 vs untreated n=8) | GSEA enrichment of 1693-gene signature and 25-gene signature (PES) gene sets after treatment [3] | Expression of H3K27ac-altered genes in patients reverted by treatment ([3]; 1007 out of 1693 genes)
1 | CNC(=C[N+](=O)[O-])NCCSCc1csc(CN(C)C)n1 [Nizatidine] | Reversal of the poor prognosis/HCC high risk genes to good prognosis/HCC low risk expression |  |  |  |  |  |  | 
2 | Cc1sc2c(c1C)C(c1ccc(Cl)cc1)=N[C@@H](CC(=O)OC(C)(C)C)c1nnc(C)n1-2 [JQ1] | Reversal of the poor prognosis/HCC high risk genes to good prognosis/HCC low risk expression; also recorded: reverted the 25-gene signature (PES) | significantly reduces tumor burden | efficiently reduces liver fibrosis; also recorded: significantly (p<0.05) reduced | stable; also recorded: without altering | significantly reduced | reduced; also recorded: overall decrease in their number | correspondingly (i.e., reversely) enriched | 59%

Source: patent publication US20230313299A1, “METHOD FOR DIAGNOSIS AND/OR PROGNOSIS OF LIVER DISEASE PROGRESSION AND RISK OF HEPATOCELLULAR CARCINOMA AND DISCOVERY OF THERAPEUTIC COMPOUNDS AND TARGETS TO TREAT LIVER DISEASE AND CANCER” (UNIVERSITÉ DE STRASBOURG, priority 2020, published 2023)
